In patent US8765940B2 (priority 2009, dated 2014):
pIC50, pKi: −log10 of the molar value. Read-outs that look alike come from different tables or passages of the source.

Assays:
PI3Kδ = PI3Kδ (Homo sapiens (Human), UniProt O00329); type: biochemical; conditions: PI3Kδ Alphascreen assay
Method: A PI3K Alphascreen® assay (PerkinElmer, Waltham, Mass.) was used to measure the activity of a panel of four phosphoinositide 3-kinases: PI3Kα, PI3Kβ, PI3Kγ, and PI3Kδ. Enzyme reaction buffer was prepared using sterile water (Baxter, Deerfield, Ill.) and 50 mM Tris HCl pH 7, 14 mM MgCl2, 2 mM sodium cholate, and 100 mM NaCl. 2 mM DTT was added fresh the day of the experiment. The Alphascreen buffer was made using sterile water and 10 mM Tris HCl pH 7.5, 150 mM NaCl, 0.10% Tween 20, and 30 mM EDTA. 1 mM DTT was added fresh the day of the experiment. Compound source plates used for this assay were 384-well Greiner clear polypropylene plates containing test compounds at 5 mM and diluted 1:2 over 22 concentrations. Columns 23 and 24 contained only DMSO as these wells comprised the positive and negative controls, respectively. Source plates were replicated by transferring 0.5 uL per well into 384-well Optiplates (PerkinElmer, Waltham, Mass.).
Each PI3K isoform was diluted in enzyme reaction buffer to 2× working stocks. PI3Kα was diluted to 1.6 nM, PI3Kβ was diluted to 0.8 nM, PI3Kγ was diluted to 15 nM, and PI3Kδ was diluted to 1.6 nM. PI(4,5)P2 (Echelon Biosciences, Salt Lake City, Utah) was diluted to 10 μM and ATP was diluted to 20 μM. This 2× stock was used in the assays for PI3Kα and PI3Kβ. For assay of PI3Kγ and PI3Kδ, PI(4,5)P2 was diluted to 10 μM and ATP was diluted to 8 μM to prepare a similar 2× working stock. Alphascreen reaction solutions were made using beads from the anti-GST Alphascreen kit (PerkinElmer, Waltham, Mass.). Two 4× working stocks of the Alphascreen reagents were made in Alphascreen reaction buffer. In one stock, biotinylated-IP4 (Echelon Biosciences, Salt Lake City, Utah) was diluted to 40 nM and streptavadin-donor beads were diluted to 80 μg/mL. In the second stock, PIP3-binding protein (Echelon Biosciences, Salt Lake City, Utah) was diluted to 40 nM and anti-GST-acceptor beads were diluted to 80 μg/mL.
Using a 384-well Multidrop (Titertek, Huntsville, Ala.), 10 μL/well of 2× enzyme stock was added to columns 1-24 of the assay plates for each isoform. 10 μL/well of the appropriate substrate 2× stock (containing 20 μM ATP for the PI3Kα and β assays and containing 8 μM ATP for the PI3Kγ and δ assays) was then added to Columns 1-24 of all plates. Plates were then incubated at room temperature for 20 minutes. In the dark, 10 μL/well of the donor bead solution was added to columns 1-24 of the plates to quench the enzyme reaction. The plates were incubated at room temperature for 30 minutes. Still in the dark, 10 μL/well of the acceptor bead solution was added to columns 1-24 of the plates. The plates were then incubated in the dark for 1.5 hours. The plates were read on an Envision multimode Plate Reader (PerkinElmer, Waltham, Mass.) using a 680 nm excitation filter and a 520-620 nm emission filter.

[1] = system: model of systemic lupus erythematosis; conditions: in vivo; cited from earlier work
[2] = system: mouse model of rheumatoid arthritis; conditions: in vivo; cited from earlier work
p110δ = p110δ (Homo sapiens (Human), UniProt O00329); conditions: cited from earlier work
Sequence of p110δ (O00329 whole entry, species assumed): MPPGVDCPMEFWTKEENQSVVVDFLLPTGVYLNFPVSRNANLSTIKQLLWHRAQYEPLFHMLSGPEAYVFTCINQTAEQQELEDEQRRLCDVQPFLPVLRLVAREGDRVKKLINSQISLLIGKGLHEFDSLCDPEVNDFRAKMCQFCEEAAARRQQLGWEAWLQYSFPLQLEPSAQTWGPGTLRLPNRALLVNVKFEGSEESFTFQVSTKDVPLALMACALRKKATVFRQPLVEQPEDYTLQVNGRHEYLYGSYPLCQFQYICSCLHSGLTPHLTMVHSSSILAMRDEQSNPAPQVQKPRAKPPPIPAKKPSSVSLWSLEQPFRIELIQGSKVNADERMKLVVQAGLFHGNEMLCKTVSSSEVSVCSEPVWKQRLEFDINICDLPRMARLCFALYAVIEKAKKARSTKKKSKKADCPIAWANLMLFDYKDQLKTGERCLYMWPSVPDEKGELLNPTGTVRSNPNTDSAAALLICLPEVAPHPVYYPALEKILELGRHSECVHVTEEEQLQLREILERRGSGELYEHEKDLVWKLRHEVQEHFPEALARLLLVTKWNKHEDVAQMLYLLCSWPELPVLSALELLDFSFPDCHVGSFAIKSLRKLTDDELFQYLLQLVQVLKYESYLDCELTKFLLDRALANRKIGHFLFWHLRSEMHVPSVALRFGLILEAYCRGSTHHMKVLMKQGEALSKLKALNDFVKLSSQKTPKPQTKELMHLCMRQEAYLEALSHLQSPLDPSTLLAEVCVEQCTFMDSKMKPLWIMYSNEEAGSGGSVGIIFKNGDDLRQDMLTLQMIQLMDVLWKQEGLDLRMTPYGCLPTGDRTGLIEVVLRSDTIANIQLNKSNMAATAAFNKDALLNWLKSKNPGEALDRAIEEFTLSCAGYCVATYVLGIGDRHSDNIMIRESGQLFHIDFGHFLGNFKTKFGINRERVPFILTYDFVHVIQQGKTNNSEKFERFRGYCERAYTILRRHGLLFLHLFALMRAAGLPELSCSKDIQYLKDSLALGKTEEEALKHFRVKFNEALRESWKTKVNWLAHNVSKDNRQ
Sequence of p110δ (P27986 whole entry partner, species assumed): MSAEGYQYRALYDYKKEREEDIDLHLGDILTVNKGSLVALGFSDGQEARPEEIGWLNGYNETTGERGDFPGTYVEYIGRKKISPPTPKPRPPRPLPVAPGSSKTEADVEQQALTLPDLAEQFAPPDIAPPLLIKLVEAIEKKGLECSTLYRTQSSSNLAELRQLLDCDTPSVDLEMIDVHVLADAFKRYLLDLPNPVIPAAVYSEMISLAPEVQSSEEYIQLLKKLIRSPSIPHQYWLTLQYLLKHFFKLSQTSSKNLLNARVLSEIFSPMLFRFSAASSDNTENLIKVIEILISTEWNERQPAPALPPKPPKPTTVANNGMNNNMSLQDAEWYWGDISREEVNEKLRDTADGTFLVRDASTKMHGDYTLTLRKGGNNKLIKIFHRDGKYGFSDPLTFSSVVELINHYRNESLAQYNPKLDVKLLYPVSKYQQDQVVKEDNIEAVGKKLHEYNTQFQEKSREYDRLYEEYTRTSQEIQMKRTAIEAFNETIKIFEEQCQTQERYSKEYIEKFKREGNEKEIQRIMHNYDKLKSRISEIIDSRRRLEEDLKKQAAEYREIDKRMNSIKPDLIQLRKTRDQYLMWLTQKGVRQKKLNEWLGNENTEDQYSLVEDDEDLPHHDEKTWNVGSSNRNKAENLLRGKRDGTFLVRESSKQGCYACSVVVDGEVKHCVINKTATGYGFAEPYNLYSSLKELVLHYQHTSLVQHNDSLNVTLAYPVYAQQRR

protein kinases = conditions: cited from earlier work
[3] = system: ovalbumin-induced airway inflammation; conditions: cited from earlier work
neutrophil migration = conditions: cited from earlier work
superoxide release = conditions: cited from earlier work
Class I PI 3-kinases = conditions: cited from earlier work

Sequence of PI3Kδ (O00329 whole entry): as the sequence (O00329 whole entry, species assumed) above
Sequence of PI3Kδ (P27986 whole entry partner): as the sequence (P27986 whole entry partner, species assumed) above

Row | SMILES | pKi (PI3Kδ) | other results
1 | Cc1c(-c2cccc(O)n2)nc2cc(F)ccc2c1N1CC2(CCOCC2)c2ccc(N3CCOCC3)cc21 [6-(7-fluoro-3-methyl-4-(6-(4-morpholinyl)-2′,3′,5′,6′-tetrahydrospiro[indole-3,4′-pyran]-1(2H)-yl)-2-quinolinyl)-2-pyridinol] | 6.81 | –
2 | COc1cc2nc(C)c(C)c(N3CC4(CCOCC4)c4ccc(Br)cc43)c2cc1Cl [6-bromo-1-(6-chloro-7-methoxy-2,3-dimethyl-4-quinolinyl)-1,2,2′,3′,5′,6′-hexahydrospiro[indole-3,4′-pyran]] | 6.24 | –
3 | Cc1nc2ccc(Cl)cc2c(N2CC(C)(C)c3ccc(-c4cn[nH]c4)cc32)c1C [6-chloro-4-(3,3-dimethyl-6-(1H-pyrazol-4-yl)-2,3-dihydro-1H-indol-1-yl)-2,3-dimethylquinoline] | 5.02 | –
4 | Cc1nc2c(C)cc(Cl)cc2c(N2CC(C)(C)c3ccc(N4CCOCC4)cc32)c1C [6-chloro-4-(3,3-dimethyl-6-(4-morpholinyl)-2,3-dihydro-1H-indol-1-yl)-2,3,8-trimethylquinoline] | 6.21 | –
5 | COc1ccccc1-c1cc(N2CC(C)(C)c3ccc(N4CCOCC4)cc32)c2cc(Cl)ccc2n1 [6-chloro-4-(3,3-dimethyl-6-(4-morpholinyl)-2,3-dihydro-1H-indol-1-yl)-2-(2-methoxyphenyl)quinoline] | 5.25 | –
6 | CCc1c(C)nc2ccc(Cl)cc2c1N1CC(C)(C)c2ccc(N3CCOCC3)cc21 [6-chloro-4-(3,3-dimethyl-6-(4-morpholinyl)-2,3-dihydro-1H-indol-1-yl)-3-ethyl-2-methylquinoline] | 5.95 | –
7 | Cc1c(C(F)(F)F)nc2ccc(Cl)cc2c1N1CC(C)(C)c2ccc(N3CCOCC3)cc21 [6-chloro-4-(3,3-dimethyl-6-(4-morpholinyl)-2,3-dihydro-1H-indol-1-yl)-3-methyl-2-(trifluoromethyl)quinoline] | 6.01 | –
8 | COc1cc2nc(C)c(C)c(N3CC(C)(C)c4ccc(N5CCOCC5)cc43)c2cc1Cl [6-chloro-4-(3,3-dimethyl-6-(4-morpholinyl)-2,3-dihydro-1H-indol-1-yl)-7-methoxy-2,3-dimethylquinoline] | 6.71 | –
9 | COc1cc(N2CCOCC2)cc2c1ccn2-c1c(C)c(C)nc2ccc(Cl)cc12 [6-chloro-4-(4-methoxy-6-(4-morpholinyl)-1H-indol-1-yl)-2,3-dimethylquinoline] | 5.43 | –
10 | COc1cc2nc(C)c(C)c(N3CC(C)(C)c4ccc(N5CCOCC5)c(C)c43)c2cc1Cl [6-chloro-7-methoxy-2,3-dimethyl-4-(3,3,7-trimethyl-6-(4-morpholinyl)-2,3-dihydro-1H-indol-1-yl)quinoline] | 5.40 | –
11 | CC1(C)CN(c2c3c(nc4ccc(Cl)cc24)CCCC3)c2cc(N3CCOCC3)ccc21 [7-chloro-9-(3,3-dimethyl-6-(4-morpholinyl)-2,3-dihydro-1H-indol-1-yl)-1,2,3,4-tetrahydroacridine] | 5.58 | –
12 | CC1(C)CN(c2c3c(nc4ccc(Cl)cc24)CCC3)c2cc(N3CCOCC3)ccc21 [7-chloro-9-(3,3-dimethyl-6-(4-morpholinyl)-2,3-dihydro-1H-indol-1-yl)-2,3-dihydro-1H-cyclopenta[b]quinoline] | 6.11 | –
13 | CC1(C)CN(c2c3c(nc4ccc(Cl)cc24)C(C)(C)CC3)c2cc(N3CCOCC3)ccc21 [7-chloro-9-(3,3-dimethyl-6-(4-morpholinyl)-2,3-dihydro-1H-indol-1-yl)-3,3-dimethyl-2,3-dihydro-1H-cyclopenta[b]quinoline] | 6.95 | –
14 | Cc1cc(Cl)c2nc(C)c(C)c(N3CC(C)(C)c4ccc(N5CCOCC5)cc43)c2c1 [8-chloro-4-(3,3-dimethyl-6-(4-morpholinyl)-2,3-dihydro-1H-indol-1-yl)-2,3,6-trimethylquinoline] | 5.50 | –
15 | Cc1nc2c(Cl)cccc2c(N2CC(C)(C)c3ccc(N4CCOCC4)cc32)c1C [8-chloro-4-(3,3-dimethyl-6-(4-morpholinyl)-2,3-dihydro-1H-indol-1-yl)-2,3-dimethylquinoline] | 7.30 | –
16 | Cc1c(-c2ccccn2)nc2cc(F)ccc2c1N1CC(CO)(CO)c2ccc(N3CCOCC3)cc21 [(1-(7-fluoro-3-methyl-2-(2-pyridinyl)-4-quinolinyl)-6-(4-morpholinyl)-2,3-dihydro-1H-indole-3,3-diyl)dimethanol] | 6.81 | –
17 | O=C1NC(=O)/C(=C\c2ccc3nccnc3c2)S1 [AS 605240] | – | onset of disease in a model of systemic lupus erythematosis [1]: delay onset of disease; efficacy in a mouse model of rheumatoid arthritis [2]: efficacious
18 | Cc1ccccc1-n1c(Cn2cnc3c(N)ncnc32)nc2cccc(C)c2c1=O [IC87114] | – | inhibits p110δ (p110δ): high nanomolar range (triple digit); activity against any protein kinases tested (protein kinases): no activity; inflammation and disease in a murine model of asthma [3]: significantly ameliorate inflammation and disease
19 | O=c1cc(N2CCOCC2)oc2c(-c3ccccc3)cccc12 [LY294002] | – | neutrophil migration (neutrophil migration): block; superoxide release (superoxide release): block; pIC50 (Class I PI 3-kinases; LY294002, read-out: IC50 values against each of these PI 3-kinases): ~6.00
20 | COC(=O)N1CCN(c2nc3cc(F)cc(F)c3c(N3CC4(CCOCC4)c4ncc(N5CCOCC5)cc43)c2C)CC1 [methyl 4-(5,7-difluoro-3-methyl-4-(6′-(4-morpholinyl)-2,3,5,6-tetrahydrospiro[pyran-4,3′-pyrrolo[3,2-b]pyridin]-1′(2′H)-yl)-2-quinolinyl)-1-piperazinecarboxylate] | 8.83 | –
21 | Cc1c(N2CCN(C(=O)OC(C)(C)C)CC2)nc2cc(F)cc(F)c2c1N1CC2(CCOCC2)c2ncc(N3CCOCC3)cc21 [tert-butyl 4-(5,7-difluoro-3-methyl-4-(6′-(4-morpholinyl)-2,3,5,6-tetrahydrospiro[pyran-4,3′-pyrrolo[3,2-b]pyridin]-1′(2′H)-yl)-2-quinolinyl)-1-piperazinecarboxylate] | 7.91 | –
22 | COC[C@H]1OC(=O)c2coc3c2[C@@]1(C)C1=C(C3=O)[C@@H]2CCC(=O)[C@@]2(C)C[C@H]1OC(C)=O [wortmannin] | – | neutrophil migration (neutrophil migration): block; superoxide release (superoxide release): block; pIC50 (Class I PI 3-kinases; wortmannin, read-out: IC50 values against each of the various Class I PI 3-kinases): 8.00 to 9.00
